According to US7550485B2, “Substituted N-heterocycle derivatives and methods of their use” (Wyeth, priority 2003, dated 2009):
Where a name gives a salt, the structure may show the parent alone.

Molecular target: T1, hNET (Homo sapiens, UniProt P23975)
T1 construct: expressed in transfected cells
Test: Norepinephrine (NE) uptake assay in MDCK-Net6 cells stably transfected with human hNET
Type: cell-based
Settings: [3H]NE uptake; for inhibition at 1 µM: MDCK-Net6, 1 μM test compound; for EC50: test range 1 to 10,000 nM
Description: MDCK-Net6 cells, stably transfected with human hNET (Pacholczyk, T., R. D. Blakely, and S. G. Amara, Nature, 1991, 350(6316): p. 350-4) were cultured in growth medium containing high glucose DMEM (Gibco, Cat. No. 11995), 10% FBS (dialyzed, heat-inactivated, US Bio-Technologies, Lot FBD1129HI) and 500 μg/ml G418 (Gibco, Cat. No. 10131). Cells were plated at 300,000/T75 flask and cells were split twice weekly. The JAR cell line (human placental choriocarcinoma) was purchased from ATCC (Cat. No. HTB-144). The cells were cultured in growth medium containing RPMI 1640 (Gibco, Cat. No. 72400), 10% FBS (Irvine, Cat. No. 3000), 1% sodium pyruvate (Gibco, Cat. No. 1136) and 0.25% glucose. Cells were plated at 250,000 cells/T75 flask and split twice weekly. For all assays, cells were plated in Wallac 96-well sterile plates (PerkinElmer, Cat. No. 3983498).
Norepinephrine (NE) Uptake Assay
On day 1, cells were plated at 3,000 cells/well in growth medium and maintained in a cell incubator (37° C., 5% CO2). On day 2, growth medium was replaced with 200 μl of assay buffer (25 mM HEPES; 120 mM NaCl; 5 mM KCl; 2.5 mM CaCl2; 1.2 mM MgSO4; 2 mg/ml glucose (pH 7.4, 37° C.)) containing 0.2 mg/ml ascorbic acid and 10 μM pargyline. Plates containing cells with […] of assay buffer were equilibrated for 10 minutes at 37° C. prior to addition of compounds. A stock solution of desipramine was prepared in DMSO (10 mM) and delivered to triplicate wells containing cells for a final test concentration of 1 μM. Data from these wells were used to define non-specific NE uptake (minimum NE uptake). Test compounds were prepared in DMSO (10 mM) and diluted in assay buffer according to test range (1 to 10,000 nM). Twenty-five microliters of assay buffer (maximum NE uptake) or test compound were added directly to triplicate wells containing cells in 200 μl of assay buffer. The cells in assay buffer with test compounds were incubated for 20 minutes at 37° C. To initiate the NE uptake, [^3H]NE diluted in assay buffer (120 nM final assay concentration) was delivered in 25 μl aliquots to each well and the plates were incubated for 5 minutes (37° C.). The reaction was terminated by decanting the supernatant from the plate. The plates containing cells were washed twice with 200 μl assay buffer (37° C.) to remove free radioligand. The plates were then inverted, left to dry for 2 minutes, then reinverted and air-dried for an additional 10 minutes. The cells were lysed in 25 μl of 0.25 N NaOH solution (4° C.), placed on a shake table and vigorously shaken for 5 minutes. After cell lysis, 75 μl of scintillation cocktail was added to each well and the plates were sealed with film tape. The plates were returned to the shake table and vigorously shaken for a minimum of 10 minutes to ensure adequate partitioning of organic and aqueous solutions. The plates were counted in a Wallac Microbeta counter (PerkinElmer) to collect the raw cpm data.
For each experiment, a data stream of cpm values collected from the Wallac Microbeta counter was downloaded to a Microsoft Excel statistical application program. Calculations of EC50 values were made using the transformed-both-sides logistic dose response program written by Wyeth Biometrics Department. The statistical program uses mean cpm values from wells representing maximum binding or uptake (assay buffer) and mean cpm values from wells representing minimum binding or uptake ((1 μM desipramine (hNET) or 1 μM paroxetine (hSERT)). Estimation of the EC50 value was completed on a log scale and the line was fit between the maximum and minimum binding or uptake values. All graphic data representation was generated by normalizing each data point to a mean percent based on the maximum and minimum binding or uptake values. The EC50 values reported from multiple experiments were calculated by pooling the raw data from each experiment and analyzing the pooled data as one experiment.

T1 sequence (P23975 whole entry): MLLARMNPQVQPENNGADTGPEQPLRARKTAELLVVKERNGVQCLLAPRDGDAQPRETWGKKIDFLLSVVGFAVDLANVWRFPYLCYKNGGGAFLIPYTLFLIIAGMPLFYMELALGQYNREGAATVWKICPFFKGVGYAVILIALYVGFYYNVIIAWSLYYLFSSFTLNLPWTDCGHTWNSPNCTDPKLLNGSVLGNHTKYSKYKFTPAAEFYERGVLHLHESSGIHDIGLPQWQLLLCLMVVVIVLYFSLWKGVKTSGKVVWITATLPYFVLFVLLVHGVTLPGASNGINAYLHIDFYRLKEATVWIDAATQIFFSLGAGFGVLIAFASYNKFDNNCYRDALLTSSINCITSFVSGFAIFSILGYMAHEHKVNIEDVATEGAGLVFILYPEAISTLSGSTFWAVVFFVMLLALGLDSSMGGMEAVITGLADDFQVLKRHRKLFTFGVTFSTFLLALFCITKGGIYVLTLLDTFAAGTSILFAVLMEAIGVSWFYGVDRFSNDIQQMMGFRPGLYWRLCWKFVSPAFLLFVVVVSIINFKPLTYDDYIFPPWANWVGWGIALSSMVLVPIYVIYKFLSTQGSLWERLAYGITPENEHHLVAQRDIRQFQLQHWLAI

| inhibition at 1 µM | EC50 | Structure (SMILES) |
| --- | --- | --- |
| 100% | 0.045 µM | OC1(C(CN2CCC(N3CCCCC3)CC2)c2cccc(Cl)c2)CCCCC1 (stereo not drawn) [Example 2, 1-[2-(1,4′-bipiperidin-1′-yl)-1-(3-chlorophenyl)ethyl]cyclohexanol dihydrochloride] |
| 77.8% |  | CN[C@H]1CCN(CC(c2cccc(Cl)c2)C2(O)CCCCC2)C1 (stereo partly drawn) [Example 198, 1-1-{1-(3-chlorophenyl)-2-[(3S)-3-(methylamino)pyrrolidin-1-yl]ethyl}cyclohexanol dihydrochloride] |
| 50.4% |  | CN[C@@H]1CCCN(CC(c2cccc(OC(F)(F)F)c2)C2(O)CCCCC2)C1 (stereo partly drawn) [Example 186, 1-[2-{(3R)-3-(methylamino)piperidin-1-yl]-1-[3-(trifluoromethoxy)phenyl]ethyl}cyclohexanol dihydrochloride] |
| 79% | 0.054 µM | CN(C)C1CCN(CC(c2ccc(OCc3ccc4ccccc4c3)c(Cl)c2)C2(O)CCCCC2)CC1 (stereo not drawn) [Example 431, 1-{1-[3-chloro-4-(2-naphthylmethoxyl)phenyl]-2-[4-(dimethylamino)piperidin-1-yl]ethyl}cyclohexanol dihydrochloride] |
| 92% |  | CN[C@H]1CCCN(CC(c2ccc(OCc3ccccc3)c(Cl)c2)C2(O)CCCCC2)C1 (stereo partly drawn) [Example 195, 1-{1-[4-(benzyloxy)-3-chlorophenyl]-2-[(3S)-3-(methylamino)piperidin-1-yl]ethyl}cyclohexanol dihydrochloride] |
| 59.2% |  | CN[C@H]1CCN(CC(c2ccc3ccccc3c2)C2(O)CCCCC2)C1 (stereo partly drawn) [Example 203, 1-[2-[(3S)-3-(methylamino)pyrrolidin-1-yl]-1-(2-naphthyl)ethyl]cyclohexanol dihydrochloride] |
| 79% |  | COc1ccc(C(CN2CCC(N3CCCCC3)CC2)C2(O)CCCCC2)cc1Cl (stereo not drawn) [Example 458, 1-[2-(1,4′-bipiperidin-1′-yl)-1-(3-chloro-4-methoxyphenyl)ethyl]cyclohexanol dihydrochloride] |
| 88.8% |  | N[C@H]1CCN(CC(c2ccc(OCc3ccccc3)c(Cl)c2)C2(O)CCCCC2)C1 (stereo partly drawn) [Example 210, 1-{2-[(3S)-3-aminopyrrolidin-1-yl]-1-[4-(benzyloxy)-3-chlorophenyl]ethyl}cyclohexanol dihydrochloride] |
| 95.4% |  | CN(C)C1CCN(CC(c2cccc(Br)c2)C2(O)CCCCC2)CC1 (stereo not drawn) [Example 319, 1-{1-(3-bromophenyl)-2-[4-(dimethylamino)piperidin-1-yl]ethyl}cyclohexanol dihydrochloride] |
| 81.1% |  | CN(C)[C@@H]1CCCN(CC(c2ccc(OCc3ccccc3)c(Cl)c2)C2(O)CCCCC2)C1 (stereo partly drawn) [Example 194, 1-{1-[4-(benzyloxy)-3-chlorophenyl]-2-[(3R)-3-(dimethylamino)piperidin-1-yl]ethyl}cyclohexanol dihydrochloride] |
| 70.4% |  | N[C@H]1CCN(CC(c2ccc3ccccc3c2)C2(O)CCCCC2)C1 (stereo partly drawn) [Example 204, 1-[2-[(3S)-3-aminopyrrolidin-1-yl]-1-(2-naphthyl)ethyl]cyclohexanol dihydrochloride] |
| 46% |  | N[C@@H]1CCN(CC(c2ccc3ccccc3c2)C2(O)CCCCC2)C1 (stereo partly drawn) [Example 374, 1-[2-[(3R)-3-aminopyrrolidin-1-yl]-1-(2-naphthyl)ethyl]cyclohexanol dihydrochloride] |
| 84.8% |  | CN[C@H]1CCN(CC(c2ccc(OCc3ccccc3)cc2)C2(O)CCCCC2)C1 (stereo partly drawn) [Example 212, 1-{1-[4-(benzyloxy)phenyl]-2-[(3S)-3-(methylamino)pyrrolidin-1-yl]ethyl}cyclohexanol dihydrochloride] |
| 79% |  | CC(C)(O)C(CN1CCC(N)CC1)c1cccc(Cl)c1 (stereo not drawn) [Example 273, 4-(4-aminopiperidin-1-yl)-3-(3-chlorophenyl)-2-methylbutan-2-ol dihydrochloride] |
| 18.7% |  | NC1CCN(CC(c2ccc(OC(F)(F)F)cc2)C2(O)CCCCC2)CC1 (stereo not drawn) [Example 303, 1-{2-(4-aminopiperidin-1-yl)-1-[4-(trifluoromethoxy)phenyl]ethyl}cyclohexanol dihydrochloride] |
| 79% | 0.53 µM | CNC1CCN(CC(c2cccc(C(F)(F)F)c2)C2(O)CCCCC2)CC1 (stereo not drawn) [Example 30, 1-{2-[4-(methylamino)piperidin-1-yl]-1-[3-(trifluoromethyl)phenyl]ethyl}cyclohexanol dihydrochloride] |
| 91.1% |  | CN(C)C1CCN(CC(c2cccc(Cl)c2)C2CCCCC2)CC1 (stereo not drawn) [Example 233, 1-[2-(3-chlorophenyl)-2-cyclohexylethyl]-N,N-dimethylpiperidin-4-amine dihydrochloride] |
| 39% |  | NC1CCN(CC(c2cccc3ccccc23)C2(O)CCCCC2)CC1 (stereo not drawn) [Example 54, 1-[2-(4-aminopiperidin-1-yl)-1-(1-naphthyl)ethyl]cyclohexanol dihydrochloride] |
| 72.5% |  | OC1CCN(CC(c2ccc(OCc3ccccc3)c(Cl)c2)C2(O)CCCCC2)CC1 (stereo not drawn) [Example 241, 1-[2-[4-(benzyloxy)-3-chlorophenyl]-2-(1-hydroxycyclohexyl)ethyl]piperidin-4-ol hydrochloride] |
| 17% |  | OC1(C(CN2CCC(N3CCCCC3)CC2)c2ccc(OCCc3ccccc3)cc2)CCCCC1 (stereo not drawn) [Example 461, 1-{2-(1,4′-bipiperidin-1′-yl)-1-[4-(2-phenylethoxy)phenyl]ethyl}cyclohexanol dihydrochloride] |
| 49.7% |  | CNC1CCN(CC(c2cccc(Cl)c2)C2CCCCCC2)CC1 (stereo not drawn) [Example 236, 1-[2-(3-chlorophenyl)-2-cycloheptylethyl]-N-methylpiperidin-4-amine dihydrochloride] |
| 69% | 0.17 µM | NC1CCN(CC(c2ccc3ccccc3c2)C2(O)CCCCC2)CC1 (stereo not drawn) [Example 32, 1-[2-(4-aminopiperidin-1-yl)-1-(2-naphthyl)ethyl]cyclohexanol dihydrochloride] |
| 94% | 0.078 µM | OC1([C@H](CN2CCC(N3CCCC3)CC2)c2cccc(OC(F)(F)F)c2)CCCCC1 [Example 365, 1-{(1S)-2-(4-pyrrolidin-1-ylpiperidin-1-yl)-1-[3-(trifluoromethoxy)phenyl]ethyl}cyclohexanol dihydrochloride] |
| 91% | 0.26 µM | OC1(C(CN2CCC(N3CCCC3)CC2)c2ccc(Cl)c(Cl)c2)CCCCC1 (stereo not drawn) [Example 11, 1-[1-(3,4-dichlorophenyl)-2-(4-pyrrolidin-1-ylpiperidin-1-yl)ethyl]cyclohexanol dihydrochloride] |
| 12.3% |  | CN(C)[C@H]1CCCN(CC(c2cccc(OC(F)(F)F)c2)C2(O)CCCCC2)C1 (stereo partly drawn) [Example 191, 1-{2-[(3S)-3-(dimethylamino)piperidin-1-yl]-1-[3-(trifluoromethoxy)phenyl]ethyl}cyclohexanol dihydrochloride] |
| 92.2% |  | N[C@H]1CCCN(CC(c2ccc(OCc3ccccc3)c(Cl)c2)C2(O)CCCCC2)C1 (stereo partly drawn) [Example 196, 1-{2-[(3S)-3-aminopiperidin-1-yl]-1-[4-(benzyloxy)-3-chlorophenyl]ethyl}cyclohexanol dihydrochloride] |
| 3% |  | NC1CCN(CC(c2cccc(Cl)c2)C2(O)CCC3CCCCC3C2)CC1 (stereo not drawn) [Example 327, 2-[2-(4-aminopiperidin-1-yl-1-(3-chlorophenyl)ethyl]decahydronaphthalen-2-oldihydrochloride] |
